“And” between values parts separate entries of the source, which are not always exact repeats. Equal values may be shown once.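 Test compounds were applied to cells in 96-well plates for 48 hours at 5 doses. Abbreviation: GI50, concentration required for 50% inhibition of growth. TGI: total growth inhibition.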
Tested on: 786-0 renal
Assay: DTP human tumour cell line panel, 48 h

Question: `CCC1CN2C(=N1)c1ccccc1-c1cc(Cl)ccc12` (centres undefined) was tested. Which GI50 did it give?
Answer: Its GI50 is 3.32 µM.

Question: And the TGI?
Answer: The TGI was 13 µM.

Question: `CC1(N)CCN(c2cccnc2NC(=O)c2nc(-c3ncccc3C(F)(F)F)cnc2N)CC1` was tested. Which GI50 did it give?
Answer: The GI50 was 15.3 µM.

Question: And the TGI?
Answer: The TGI was over 100 µM.

Question: Which TGI does the source give for `CC[C@]1(Cc2ccc(OC)c(OC)c2)C=[N+]([O-])O[C@H](OC2CCCC2(c2ccccc2)c2ccccc2)[C@@H]1OC(C)=O` (some centres undefined) here?
Answer: Its TGI is 3.67 µM.

Question: For `COc1ccc2c(c1)nnn1c3ncccc3c(N=O)c21`, which GI50 is on record?
Answer: Its GI50 is 0.334 µM and 2.38 µM.

Tested on: A498 renal
Assay: DTP human tumour cell line panel, 48 h

Question: Which GI50 does the source give for `CCC1CN2C(=N1)c1ccccc1-c1cc(Cl)ccc12` (centres undefined) here?
Answer: The GI50 was 3.01 µM.

Question: And the TGI?
Answer: The TGI was 12.1 µM.

Question: What does the source list for `CC1(N)CCN(c2cccnc2NC(=O)c2nc(-c3ncccc3C(F)(F)F)cnc2N)CC1`?
Answer: GI50: 34.7 µM; TGI: > 100 µM

Question: For `COc1ccc2c(c1)nnn1c3ncccc3c(N=O)c21`, which GI50 is on record?
Answer: Its GI50 is 1.27 µM and 6.23 µM.

Question: What about the TGI of the same compound?
Answer: The TGI was 6.26 µM and 22.5 µM.

Tested on: A549 NSCLC
Assay: DTP human tumour cell line panel, 48 h

Question: What does the source list for `CCC1CN2C(=N1)c1ccccc1-c1cc(Cl)ccc12` (centres undefined)?
Answer: GI50: 2.24 µM; TGI: 15.6 µM

Question: Which GI50 does the source give for `CC1(N)CCN(c2cccnc2NC(=O)c2nc(-c3ncccc3C(F)(F)F)cnc2N)CC1` here?
Answer: Its GI50 is 22 µM.

Question: What about the TGI of the same compound?
Answer: Its TGI is over 100 µM.

Question: For `CC[C@]1(Cc2ccc(OC)c(OC)c2)C=[N+]([O-])O[C@H](OC2CCCC2(c2ccccc2)c2ccccc2)[C@@H]1OC(C)=O` (some centres undefined), which TGI is on record?
Answer: The TGI was 18.8 µM.

Question: Which GI50 does the source give for `COc1ccc2c(c1)nnn1c3ncccc3c(N=O)c21` here?
Answer: The GI50 was 10.8 µM and 3.87 µM.

Question: What about the TGI of the same compound?
Answer: Its TGI is 50 µM and 15.7 µM.

Tested on: ACHN renal
Assay: DTP human tumour cell line panel, 48 h

Question: For `CCC1CN2C(=N1)c1ccccc1-c1cc(Cl)ccc12` (centres undefined), which GI50 is on record?
Answer: The GI50 was 1.75 µM.

Question: And the TGI?
Answer: The TGI was 4.21 µM.

Question: How did the GI50 turn out when `CC1(N)CCN(c2cccnc2NC(=O)c2nc(-c3ncccc3C(F)(F)F)cnc2N)CC1` was run?
Answer: The GI50 was 19.2 µM.

Question: What about the TGI of the same compound?
Answer: The TGI was over 100 µM.

Question: With `CC[C@]1(Cc2ccc(OC)c(OC)c2)C=[N+]([O-])O[C@H](OC2CCCC2(c2ccccc2)c2ccccc2)[C@@H]1OC(C)=O` (some centres undefined) as the compound, how does the TGI read?
Answer: The TGI was 10.2 µM.

Question: How did the GI50 turn out when `COc1ccc2c(c1)nnn1c3ncccc3c(N=O)c21` was run?
Answer: The GI50 was 0.374 µM.

Question: And the TGI?
Answer: Its TGI is over 100 µM.

Tested on: BT-549 breast
Assay: DTP human tumour cell line panel, 48 h

Question: What does the source list for `CCC1CN2C(=N1)c1ccccc1-c1cc(Cl)ccc12` (centres undefined)?
Answer: GI50: 13.2 µM; TGI: 50.3 µM

Question: `CC1(N)CCN(c2cccnc2NC(=O)c2nc(-c3ncccc3C(F)(F)F)cnc2N)CC1` was tested. Which GI50 did it give?
Answer: Its GI50 is 18.2 µM.

Question: And the TGI?
Answer: The TGI was over 100 µM.

Question: `CC[C@]1(Cc2ccc(OC)c(OC)c2)C=[N+]([O-])O[C@H](OC2CCCC2(c2ccccc2)c2ccccc2)[C@@H]1OC(C)=O` (some centres undefined) was tested. Which TGI did it give?
Answer: Its TGI is 27.9 µM.

Question: What does the source list for `COc1ccc2c(c1)nnn1c3ncccc3c(N=O)c21`?
Answer: GI50: 5.06 µM and 1.46 µM; TGI: 16.3 µM and 4.68 µM

Tested on: CAKI-1 renal
Assay: DTP human tumour cell line panel, 48 h

Question: For `CCC1CN2C(=N1)c1ccccc1-c1cc(Cl)ccc12` (centres undefined), which GI50 is on record?
Answer: The GI50 was 4.32 µM.

Question: And the TGI?
Answer: Its TGI is 46.7 µM.

Question: How did the GI50 turn out when `CC1(N)CCN(c2cccnc2NC(=O)c2nc(-c3ncccc3C(F)(F)F)cnc2N)CC1` was run?
Answer: The GI50 was 17.8 µM.

Question: What about the TGI of the same compound?
Answer: The TGI was over 100 µM.

Question: With `COc1ccc2c(c1)nnn1c3ncccc3c(N=O)c21` as the compound, how does the GI50 read?
Answer: Its GI50 is 0.0892 µM and 0.202 µM.

Question: What about the TGI of the same compound?
Answer: The TGI was 0.359 µM and 1.59 µM.

Tested on: CCRF-CEM leukemia
Assay: DTP human tumour cell line panel, 48 h

Question: How did the GI50 turn out when `CCC1CN2C(=N1)c1ccccc1-c1cc(Cl)ccc12` (centres undefined) was run?
Answer: Its GI50 is 2.02 µM.

Question: What about the TGI of the same compound?
Answer: Its TGI is 4.79 µM.

Question: Which results are given for `CC1(N)CCN(c2cccnc2NC(=O)c2nc(-c3ncccc3C(F)(F)F)cnc2N)CC1`?
Answer: GI50: 26.9 µM; TGI: > 100 µM

Question: Which TGI does the source give for `CC[C@]1(Cc2ccc(OC)c(OC)c2)C=[N+]([O-])O[C@H](OC2CCCC2(c2ccccc2)c2ccccc2)[C@@H]1OC(C)=O` (some centres undefined) here?
Answer: The TGI was over 100 µM.

Question: Which results are given for `COc1ccc2c(c1)nnn1c3ncccc3c(N=O)c21`?
Answer: GI50: 0.0409 µM; TGI: > 100 µM

Tested on: COLO 205 colon
Assay: DTP human tumour cell line panel, 48 h

Question: What does the source list for `CCC1CN2C(=N1)c1ccccc1-c1cc(Cl)ccc12` (centres undefined)?
Answer: GI50: 3.21 µM; TGI: 12.6 µM

Question: Which GI50 does the source give for `CC1(N)CCN(c2cccnc2NC(=O)c2nc(-c3ncccc3C(F)(F)F)cnc2N)CC1` here?
Answer: Its GI50 is 5.48 µM.

Question: And the TGI?
Answer: The TGI was 36.6 µM.

Question: `CC[C@]1(Cc2ccc(OC)c(OC)c2)C=[N+]([O-])O[C@H](OC2CCCC2(c2ccccc2)c2ccccc2)[C@@H]1OC(C)=O` (some centres undefined) was tested. Which TGI did it give?
Answer: The TGI was 12 µM.

Question: Which results are given for `COc1ccc2c(c1)nnn1c3ncccc3c(N=O)c21`?
Answer: GI50: 0.681 µM and 1.22 µM; TGI: 2.74 µM

Tested on: DU-145 prostate
Assay: DTP human tumour cell line panel, 48 h

Question: What does the source list for `CCC1CN2C(=N1)c1ccccc1-c1cc(Cl)ccc12` (centres undefined)?
Answer: GI50: 2.31 µM; TGI: 6.26 µM

Question: Which results are given for `CC1(N)CCN(c2cccnc2NC(=O)c2nc(-c3ncccc3C(F)(F)F)cnc2N)CC1`?
Answer: GI50: 35.3 µM; TGI: > 100 µM

Question: `CC[C@]1(Cc2ccc(OC)c(OC)c2)C=[N+]([O-])O[C@H](OC2CCCC2(c2ccccc2)c2ccccc2)[C@@H]1OC(C)=O` (some centres undefined) was tested. Which TGI did it give?
Answer: Its TGI is 13.1 µM.

Question: With `COc1ccc2c(c1)nnn1c3ncccc3c(N=O)c21` as the compound, how does the GI50 read?
Answer: Its GI50 is 1.82 µM and 2.38 µM.

Question: And the TGI?
Answer: The TGI was 13 µM and 8.09 µM.

Tested on: EKVX NSCLC
Assay: DTP human tumour cell line panel, 48 h

Question: Which results are given for `CCC1CN2C(=N1)c1ccccc1-c1cc(Cl)ccc12` (centres undefined)?
Answer: GI50: 4.74 µM; TGI: 26.6 µM

Question: Which results are given for `CC1(N)CCN(c2cccnc2NC(=O)c2nc(-c3ncccc3C(F)(F)F)cnc2N)CC1`?
Answer: GI50: 34.9 µM; TGI: > 100 µM

Question: With `CC[C@]1(Cc2ccc(OC)c(OC)c2)C=[N+]([O-])O[C@H](OC2CCCC2(c2ccccc2)c2ccccc2)[C@@H]1OC(C)=O` (some centres undefined) as the compound, how does the TGI read?
Answer: Its TGI is 25.3 µM.

Question: How did the GI50 turn out when `COc1ccc2c(c1)nnn1c3ncccc3c(N=O)c21` was run?
Answer: The GI50 was 3.38 µM and 3.82 µM.

Question: What about the TGI of the same compound?
Answer: The TGI was 25.3 µM and 61.8 µM.

Tested on: HCC-2998 colon
Assay: DTP human tumour cell line panel, 48 h

Question: With `CCC1CN2C(=N1)c1ccccc1-c1cc(Cl)ccc12` (centres undefined) as the compound, how does the GI50 read?
Answer: Its GI50 is 4.17 µM.

Question: And the TGI?
Answer: The TGI was 16.3 µM.

Question: Which results are given for `CC1(N)CCN(c2cccnc2NC(=O)c2nc(-c3ncccc3C(F)(F)F)cnc2N)CC1`?
Answer: GI50: > 100 µM; TGI: > 100 µM

Question: How did the TGI turn out when `CC[C@]1(Cc2ccc(OC)c(OC)c2)C=[N+]([O-])O[C@H](OC2CCCC2(c2ccccc2)c2ccccc2)[C@@H]1OC(C)=O` (some centres undefined) was run?
Answer: Its TGI is 7.71 µM.

Question: With `COc1ccc2c(c1)nnn1c3ncccc3c(N=O)c21` as the compound, how does the GI50 read?
Answer: Its GI50 is 7.23 µM and 1.24 µM.

Question: What about the TGI of the same compound?
Answer: The TGI was 15.6 µM and 2.79 µM.

Tested on: HCT-116 colon
Assay: DTP human tumour cell line panel, 48 h

Question: `CCC1CN2C(=N1)c1ccccc1-c1cc(Cl)ccc12` (centres undefined) was tested. Which GI50 did it give?
Answer: Its GI50 is 2.53 µM.

Question: What about the TGI of the same compound?
Answer: Its TGI is 10.6 µM.

Question: Which GI50 does the source give for `CC1(N)CCN(c2cccnc2NC(=O)c2nc(-c3ncccc3C(F)(F)F)cnc2N)CC1` here?
Answer: Its GI50 is 13.5 µM.

Question: And the TGI?
Answer: The TGI was over 100 µM.

Question: How did the TGI turn out when `CC[C@]1(Cc2ccc(OC)c(OC)c2)C=[N+]([O-])O[C@H](OC2CCCC2(c2ccccc2)c2ccccc2)[C@@H]1OC(C)=O` (some centres undefined) was run?
Answer: Its TGI is 6.16 µM.

Question: For `COc1ccc2c(c1)nnn1c3ncccc3c(N=O)c21`, which GI50 is on record?
Answer: The GI50 was 0.06 µM.

Question: What about the TGI of the same compound?
Answer: The TGI was 0.91 µM.

Tested on: HCT-15 colon
Assay: DTP human tumour cell line panel, 48 h

Question: `CCC1CN2C(=N1)c1ccccc1-c1cc(Cl)ccc12` (centres undefined) was tested. Which GI50 did it give?
Answer: Its GI50 is 2.86 µM.

Question: What about the TGI of the same compound?
Answer: Its TGI is 11.5 µM.

Question: How did the GI50 turn out when `CC1(N)CCN(c2cccnc2NC(=O)c2nc(-c3ncccc3C(F)(F)F)cnc2N)CC1` was run?
Answer: Its GI50 is 25.1 µM.

Question: And the TGI?
Answer: Its TGI is over 100 µM.

Question: For `CC[C@]1(Cc2ccc(OC)c(OC)c2)C=[N+]([O-])O[C@H](OC2CCCC2(c2ccccc2)c2ccccc2)[C@@H]1OC(C)=O` (some centres undefined), which TGI is on record?
Answer: Its TGI is 15.8 µM.

Question: For `COc1ccc2c(c1)nnn1c3ncccc3c(N=O)c21`, which GI50 is on record?
Answer: The GI50 was 3.13 µM and 2.31 µM.

Question: And the TGI?
Answer: Its TGI is 50 µM and 11.8 µM.

Tested on: HL-60(TB) leukemia
Assay: DTP human tumour cell line panel, 48 h

Question: For `CCC1CN2C(=N1)c1ccccc1-c1cc(Cl)ccc12` (centres undefined), which GI50 is on record?
Answer: The GI50 was 1.85 µM.

Question: And the TGI?
Answer: Its TGI is 9.34 µM.

Question: Which GI50 does the source give for `CC1(N)CCN(c2cccnc2NC(=O)c2nc(-c3ncccc3C(F)(F)F)cnc2N)CC1` here?
Answer: The GI50 was 12.4 µM.

Question: And the TGI?
Answer: Its TGI is 37.8 µM.

Question: For `CC[C@]1(Cc2ccc(OC)c(OC)c2)C=[N+]([O-])O[C@H](OC2CCCC2(c2ccccc2)c2ccccc2)[C@@H]1OC(C)=O` (some centres undefined), which TGI is on record?
Answer: Its TGI is 18.8 µM.

Question: How did the GI50 turn out when `COc1ccc2c(c1)nnn1c3ncccc3c(N=O)c21` was run?
Answer: The GI50 was 0.0433 µM and 0.359 µM.

Reference: PubChem BioAssay (NCI)
